Measured values: patent US12508246B2, “Uses of complex of angiotensin II receptor antagonist metabolite and NEP inhibitor in treating heart failure” (SHENZHEN SALUBRIS PHARMACEUTICALS CO. LTD, priority 2019, dated 2025)
Where “and” joins values, the source holds several entries; their conditions need not be identical. Equal entries are not always repeated. Marks after values point to notes of the source that are not given here.

Legend:
[1] = system: dogs with heart failure (preserved ejection fraction); experiment: Pharmacodynamic study in the canine chronic heart failure model-preserved ejection fraction (LAD ligation, echocardiography); type: in vivo; settings: HFpEF dog model; 100 mpk (mix: EXP3174 52 mpk + sacubitril 48 mpk) p.o. qd, from 3 d after modeling for 2 weeks; Mean ± SD; model 51.80, sham 68.15
Description: 5.1 Methods: After the animals arrived at the facility, they were on adaptive feeding, and randomized after echocardiography and ECG, and then the experiment was started. On the day of operation, animals were anesthetized by intramuscular injection of Zoletil (5 mg/kg). The tracheae of the anesthetized dogs were connected to the ventilator, and then they were fixed in a supine position; their chests were opened between the third and fourth ribs, the left anterior descending coronary artery was ligated to close the thoracic cavity, and then the skin was sutured. After the animals recovered for 3 days after operation, they were given therapeutic drugs by gavage, once a day for two consecutive weeks. During the experiment, the animals' living conditions were observed every day, and their abnormal conditions were recorded. After 14 days of dosing, echocardiography was performed.
(§1) 5.2 Modeling: On the day before operation, the animals were fasted overnight. On the day of operation, the animals were intramuscularly injected with Zoletil (dose: 5 mg/kg) to induce anesthesia, and also were intramuscularly administered with atropine sulfate injection (dose: 0.5 mg/dog). After the animals were anesthetized, their hair on the left chest was shaved clean. […]

[2] = system: dogs with heart failure (reduced ejection fraction); experiment: Pharmacodynamic study in the canine chronic heart failure model-reduced ejection fraction (LAD ligation, echocardiography); type: in vivo; settings: HFrEF dog model; 100 mpk (mix: EXP3174 52 mpk + sacubitril 48 mpk) p.o. qd, from 3 d after modeling for 6 weeks; Mean ± SD; model 35.82, sham 66.20
Description: 4.1 Methods: After the animals arrived at the facility, they were on adaptive feeding, and randomized after echocardiography and ECG, and then the experiment was started. On the day of operation, animals were anesthetized by intramuscular injection of Zoletil (5 mg/kg). The trachea of the anesthetized dogs were connected to the ventilator, and then they were fixed in a supine position, their chest was opened between the third and fourth ribs, the left anterior descending coronary artery was ligated to close the thoracic cavity, and then the skin was sutured. After the animals recovered for 3 days after operation, they were given therapeutic drugs by gavage, once a day for […] consecutive weeks. During the experiment, animal's living conditions were observed every day, and their abnormal conditions were recorded. After 42 days of dosing, echocardiography was performed.
as §1, with “4.2” for “5.2”

Row | Substance | endpoint left ventricular ejection fraction LVEF (%) [1] | endpoint left ventricular ejection fraction LVEF (%) [2]
1 | (EXP3174·AHU377)^3−·1.5 Ca^2+·2H2O [Complex of the invention] | 58.04 ± 1.29***^@ % | 51.87 ± 1.01***^@$ %
2 | Valsartan-Sacubitril sodium salt complex [LCZ696] | 57.98% and 57.98 ± 2.64 % | 46.45% and 46.45 ± 3.39 %
